In PubChem BioAssay AID1671247:

Biological target: Casein kinase I isoform gamma-2 (Homo sapiens) (UniProt P78368)
Assay: PubChem AID 1671247
Settings: Z'-LYTE FRET kinase activity assay

Sequence of Casein kinase I isoform gamma-2 (Homo sapiens) (P78368 whole entry, looked up, canonical isoform): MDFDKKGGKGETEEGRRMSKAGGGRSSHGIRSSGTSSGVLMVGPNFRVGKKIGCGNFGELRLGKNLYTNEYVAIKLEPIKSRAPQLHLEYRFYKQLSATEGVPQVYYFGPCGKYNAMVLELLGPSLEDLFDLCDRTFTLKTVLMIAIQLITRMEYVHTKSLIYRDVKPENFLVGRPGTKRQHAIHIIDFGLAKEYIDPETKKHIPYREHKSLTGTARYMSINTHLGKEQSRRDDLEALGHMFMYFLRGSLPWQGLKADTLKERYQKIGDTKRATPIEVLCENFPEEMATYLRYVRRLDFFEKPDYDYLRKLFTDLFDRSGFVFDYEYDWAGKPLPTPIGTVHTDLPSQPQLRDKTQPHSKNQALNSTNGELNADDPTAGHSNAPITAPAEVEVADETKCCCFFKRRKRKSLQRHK

IC50: 26.5 µM
Structure (SMILES): Brc1c(Br)c(Br)c2n[nH]nc2c1Br
